Reference: ChEMBL document CHEMBL1201862, “PubChem BioAssay data set” (2004)
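48-hour exposure; five concentrations; linearly interpolated endpoints. GI50 is the concentration that inhibits growth by half.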 Active and inactive are the calls of the source. Cut-off read from the data, not from the text of the source: active = GI50 up to about 1.1 µM and inactive = higher.

Tests used:
Experiment in all cases: inhibition of tumour cell growth, NCI panel, 48 h
A549 = test system: A549
DLD-1 = test system: DLD-1
EKVX = test system: EKVX
HCC 2998 = test system: HCC 2998
HCT-15 = test system: HCT-15
HOP-18 = test system: HOP-18
HT-29 = test system: HT-29
M19-MEL = test system: M19-MEL
MOLT-4 = test system: MOLT-4
Malme-3M = test system: Malme-3M
NCI-H23 = test system: NCI-H23
OVCAR-5 = test system: OVCAR-5
OVCAR-8 = test system: OVCAR-8
SF-268 = test system: SF-268
SF-295 = test system: SF-295
SK-MEL-2 = test system: SK-MEL-2
SK-OV-3 = test system: SK-OV-3
SN12C = test system: SN12C
UACC-257 = test system: UACC-257
UACC-62 = test system: UACC-62

SMILES | GI50 (A549) | GI50 (DLD-1) | GI50 (EKVX) | GI50 (HCC 2998) | GI50 (HCT-15) [µM] | GI50 (HOP-18) | GI50 (HT-29) | GI50 (M19-MEL) | GI50 (MOLT-4) | GI50 (Malme-3M) | GI50 (NCI-H23) | GI50 (OVCAR-5) | GI50 (OVCAR-8) | GI50 (SF-268) | GI50 (SF-295) | GI50 (SK-MEL-2) | GI50 (SK-OV-3) | GI50 (SN12C) | GI50 (UACC-257) | GI50 (UACC-62)
Cc1ccc(S(=O)(=O)Oc2cc(-c3ccccc3)nc3ccccc23)cc1 | 3.15 µM (inactive) | 2.49 µM (inactive) | 19.4 µM (inactive) | 1 µM (active) | 1.41 | 7.62 µM (inactive) | 1.93 µM (inactive) | 3.3 µM (inactive) | 3.63 µM (inactive) | 1.58 µM (inactive) | 2.53 µM (inactive) | 15.8 µM (inactive) | 5.24 µM (inactive) | 8.77 µM (inactive) | 1.91 µM (inactive) | 1.98 µM (inactive) | 2.23 µM (inactive) | 5.93 µM (inactive) | 10 µM (inactive) | 3.01 µM (inactive)
COc1ccc(/C(Cl)=C(\C=O)c2ccc(Cl)cc2)cc1 | 5.61 µM (inactive) | 4.85 µM (inactive) | 5.07 µM (inactive) | 23.2 µM (inactive) | 3.41 | 30.3 µM (inactive) | 4.84 µM (inactive) | 9.77 µM (inactive) | 2.63 µM (inactive) | 23.3 µM (inactive) | 3.56 µM (inactive) | 57.5 µM (inactive) | 4.41 µM (inactive) | 6.11 µM (inactive) | 4.4 µM (inactive) | 3.82 µM (inactive) | 40.9 µM (inactive) | 3.08 µM (inactive) | 11 µM (inactive) | 10.1 µM (inactive)
Cc1cn([C@@H]2C[C@H](CO)[C@@H](O)C2)c(=O)[nH]c1=O | > 100 µM (inactive) | > 100 µM (inactive) | > 100 µM (inactive) | > 100 µM (inactive) | > 100 | > 100 µM (inactive) | > 100 µM (inactive) | > 100 µM (inactive) | > 100 µM (inactive) | > 100 µM (inactive) | > 100 µM (inactive) | > 100 µM (inactive) | > 100 µM (inactive) | > 100 µM (inactive) | > 100 µM (inactive) | > 100 µM (inactive) | > 100 µM (inactive) | > 100 µM (inactive) | > 100 µM (inactive) | > 100 µM (inactive)
